Experimental data reported in the CheMixHub ionic liquid set.

Experiment: xn = mol fraction of the nth substance listed

FC(F)(F)c1ccccc1 + CCCC[N+]1(C)CCCC1.FC(F)(F)C(F)(F)[P-](F)(F)(F)(C(F)(F)C(F)(F)F)C(F)(F)C(F)(F)F
101 kPa
Settings	electrical conductivity [S/m]	viscosity [mPa·s]
298.1 K, x2 = 0	–	0.53
298.1 K, x2 = 0.059	0.368	–
298.1 K, x2 = 0.099	0.536	–
298.1 K, x2 = 0.144	0.663	–
298.1 K, x2 = 0.198	–	3.67
298.1 K, x2 = 0.203	0.762	–
298.1 K, x2 = 0.27	–	5.93
298.1 K, x2 = 0.274	0.696	–
298.1 K, x2 = 0.371	0.619	–
298.1 K, x2 = 0.495	–	21.7
298.1 K, x2 = 0.5	0.461	–
298.1 K, x2 = 0.69	0.311	55.1
298.1 K, x2 = 0.858	0.172	111.8
303 K, x2 = 0.063	0.394	–
303 K, x2 = 0.099	0.576	–
303 K, x2 = 0.144	0.711	–
303 K, x2 = 0.2	0.82	–
303 K, x2 = 0.274	0.772	–
303 K, x2 = 0.366	–	8.56
303 K, x2 = 0.374	0.681	–
303 K, x2 = 0.497	0.553	–
303 K, x2 = 0.498	–	17.83
303 K, x2 = 0.694	0.369	–
303 K, x2 = 0.852	–	84.4
303 K, x2 = 0.858	0.212	–
308.1 K, x2 = 0.063	0.415	–
308.1 K, x2 = 0.102	0.612	–
308.1 K, x2 = 0.141	0.766	–
308.1 K, x2 = 0.201	–	2.93
308.1 K, x2 = 0.206	0.886	–
308.1 K, x2 = 0.281	0.842	–
308.1 K, x2 = 0.366	–	7.87
308.1 K, x2 = 0.378	0.761	–
308.1 K, x2 = 0.5	0.611	–
308.1 K, x2 = 0.69	–	39.4
308.1 K, x2 = 0.694	0.435	–
308.1 K, x2 = 0.858	0.259	–
313 K, x2 = 0.063	0.434	–
313 K, x2 = 0.099	0.645	–
313 K, x2 = 0.141	–	1.77
313 K, x2 = 0.142	0.817	–
313 K, x2 = 0.203	0.951	–
313 K, x2 = 0.278	0.911	–
313 K, x2 = 0.371	0.834	–
313 K, x2 = 0.498	–	12.73
313 K, x2 = 0.5	0.688	–
313 K, x2 = 0.687	–	32.3
313 K, x2 = 0.697	0.504	–
313 K, x2 = 0.859	0.31	–
318.1 K, x2 = 0.063	0.456	–
318.1 K, x2 = 0.099	0.678	–
318.1 K, x2 = 0.142	0.86	–
318.1 K, x2 = 0.2	1.02	–
318.1 K, x2 = 0.275	0.988	–
318.1 K, x2 = 0.369	–	6.11
318.1 K, x2 = 0.372	0.914	–
318.1 K, x2 = 0.504	0.757	–
318.1 K, x2 = 0.687	–	26.6
318.1 K, x2 = 0.694	0.577	–
318.1 K, x2 = 0.855	0.361	–
323 K, x2 = 0	–	0.46
323 K, x2 = 0.026	0.204	–
323 K, x2 = 0.095	–	1.09
323 K, x2 = 0.099	0.715	–
323 K, x2 = 0.142	0.908	–
323 K, x2 = 0.201	1.08	–
323 K, x2 = 0.278	1.07	–
323 K, x2 = 0.372	0.991	–
323 K, x2 = 0.498	–	9.89
323 K, x2 = 0.501	0.834	–
323 K, x2 = 0.694	0.658	–
323 K, x2 = 0.856	–	37.4
323 K, x2 = 0.862	0.416	–

CCOC(=O)OCC + CCCC[N+]1(C)CCCC1.O=S(=O)([N-]S(=O)(=O)C(F)(F)F)C(F)(F)F
Settings	viscosity [mPa·s]
323.15 K, 100 kPa, x2 = 0	0.54

CC#N + CCCC[N+]1(C)CCCC1.O=S(=O)([O-])C(F)(F)F
101 kPa, x1 = 1
Settings	viscosity [mPa·s]
288.15 K	0.371
293.15 K	0.355
298.15 K	0.337

CN(C)C=O + CCCC[P+](C)(CCCC)CCCC.COS(=O)(=O)[O-]
100 kPa, x2 = 0
Settings	viscosity [mPa·s]
308.15 K	0.717
323.15 K	0.63

CC#N + CCCC[P+](CC)(CCCC)CCCC.F[B-](F)(F)F
100 kPa, x2 = 0
Settings	viscosity [mPa·s]
293.15 K	0.354
298.15 K	0.338
303.15 K	0.324
308.15 K	0.31
313.15 K	0.298
318.15 K	0.286
